Positions count from the first letter of the chain named. Names and notes keep the numbering of the source. One block for each molecule: values may come before it. Peptide text beside a SMILES is read from it.
Key:
[1] = system: post-infusion PBMC samples
HLA-A*03:01 = HLA-A*03:01 (Homo sapiens, UniProt P04439); assay: REVEAL Epitope Discovery System in vitro MHC-peptide binding score; details: positive control peptide set at 100%, greater than 50 = good or high affinity binding
Experimental: (§1) Actual binding affinities for certain HLA class I alleles (A*02:01, A*03:01. A*11:01, and B*08:01) were assessed in vitro for exemplary overlapping 9 amino acid peptide sequences within a portion of the 26 amino acid junction region spanning the CD28 and 4-1BB junction. Specifically, assessment was of a series of overlapping 9-mer peptides derived from the sequence […] (set forth in SEQ ID NO: 7), which contains a portion of the CD28 transmembrane domain and 4-1BB costimulatory domain spanning the junction between the domains (bond joining the two amino acids noted in underline). In addition, a series of overlapping 9-mer peptides of each of a number of different variants of this portion also were assessed, each variant containing a mutation or mutations in this region as described in Example 2.
(§2) The various 9-mer overlapping peptides were synthesized and their purity tested by MALDI-TOF Mass Spectrometry. The synthetic peptides were then incubated with recombinant MHC molecules to assess binding properties using the REVEAL Epitope Discovery System, which is a high-throughput binding assay that measures the degree to which each peptide is able to stabilize a ternary MHC-peptide complex (ProImmune, Oxford, United Kingdom). Each peptide was separately tested for this ability with respect to each of the HLA class I alleles, normalized to the degree observed for a positive control (known T cell epitope for the relevant allele). The results are reported as a score, in which the binding was normalized to the positive control peptide set at 100%.

HLA-A*02:01 = HLA-A*02:01 (Homo sapiens, UniProt P04439, D140Y/D185E/D98H/E176V/E277Q/G131W/G231S/I119V/I121R/I166T/I218V/L300P/L318F/N151K/N90K/P208A/P217A/Q86G/Q94H/R138H/R169H/T345S); assay: as above; details: for A*02:01 In Vitro Score: REVEAL score, positive control peptide set at 100%, greater than 50 = good or high affinity binding; for predicted or actual binding affinity or score for HLA class I: for at least one HLA allele (A*02:01, A*03:01, A*11:01, B*08:01) and/or at least one peptide, in silico or in vitro
Experimental: as §1, §2

HLA-A*11:01 = HLA-A*11:01 (Homo sapiens, UniProt P04439, A114D/D185E/E176A/F33Y/L180Q/S129P/T187R); assay: as above; set-up: key: % binding, normalized to positive control peptide set at 100%; details: binding normalized to positive control peptide set at 100%, greater than 50 considered good or high affinity binding
Experimental: as §1, §2

HLA-B*08:01 = HLA-B*08:01 (Homo sapiens, UniProt P01889, A93T/A95T/D138N/E176V/E187T/K202T/Q94N/R180D/S35A/V36M/Y33D/Y91F); assay: as above; set-up: key: % binding, normalized to positive control peptide set at 100%; details: binding normalized to positive control peptide set at 100%, greater than 50 considered good or high affinity binding
Experimental: as §1, §2

[2] = system: intracellular IL-2 and IFN-γ; assay: Intracellular cytokine expression after co-culture with K562-CD19; type: cell-based, human; details: versus unmodified CAR; for percentage of cells with IFN-γ cytokine expression: CD8+/CAR+ T cells after antigen stimulation; for percentage of cells with intracellular expression of IL-2: CD4+/CAR+ and CD8+/CAR+ T cells after antigen stimulation
Experimental: The production of cytokines by the anti-CD19 CAR T cells, expressing CARs containing either the native junction region or the various modified junction regions, was assessed. Engineered T cells were co-cultured with irradiated CD19-transduced K562 target cells (K562-CD19) or parental K562 cells not expressing the CD19 antigen in the presence of Golgi inhibitor. After stimulation, the cells were then fixed, permeabilized and intracellular IL-2 and IFN-γ cytokine levels were assessed by flow cytometry in CD4+/CAR+ cells and CD8+/CAR+ cells

Molecule: CC[C@H](C)[C@H](NC(=O)[C@H](Cc1ccccc1)NC(=O)[C@H](C)N)C(=O)N[C@H](C(=O)N[C@@H](Cc1ccccc1)C(=O)N[C@@H](Cc1c[nH]c2ccccc12)C(=O)N[C@H](C(=O)N[C@@H](CCCCN)C(=O)N[C@@H](CCCNC(=N)N)C(=O)NCC(=O)N[C@@H](CCCNC(=N)N)C(=O)N[C@@H](CCCCN)C(=O)N[C@@H](CCCCN)C(=O)N[C@@H](CC(C)C)C(=O)N[C@@H](CC(C)C)C(=O)O)C(C)C)[C@@H](C)CC (H-AFIIFWVKRGRKKLL-OH; N-terminus and C-terminus assumed)
specific immune response (ELISpot) [1]: specific immune responses also were detected

Molecule: CC[C@H](C)[C@H](NC(=O)[C@H](Cc1ccc(O)cc1)NC(=O)[C@H](CC(C)C)NC(=O)[C@H](CC(C)C)NC(=O)[C@H](CCCCN)NC(=O)[C@H](CCCCN)NC(=O)[C@H](CCCNC(=N)N)NC(=O)CNC(=O)[C@H](CCCNC(=N)N)NC(=O)[C@H](CCCCN)NC(=O)[C@@H](NC(=O)[C@H](Cc1c[nH]c2ccccc12)NC(=O)[C@@H](N)Cc1ccccc1)C(C)C)C(=O)N[C@@H](Cc1ccccc1)C(=O)N[C@@H](CCCCN)C(=O)O (H-FWVKRGRKKLLYIFK-OH; N-terminus and C-terminus assumed)
specific immune response (ELISpot) [1]: specific immune responses also were detected

B1: R31H: variant anti-CD19 CAR / junction region with R31H, numbering SEQ ID NO:5 (protein)
chain: FWVLVVVGGVLACYSLLVTVAFIIFWVKRGHKKLLYIFKQPFMRPVQTTQEEDGCSCRFPEEEEGGCEL
modifications: CD28-4-1BB
predicted or actual binding affinity or score for HLA class I (HLA-A*02:01): reduced predicted or actual binding affinity or score
percentage of cells with IFN-γ cytokine expression [2]: increased IFN-γ cytokine expression

B2: L34S: variant anti-CD19 CAR / junction region with L34S, numbering SEQ ID NO:5 (protein)
chain: B1 chain with H31R, L34S
modifications: CD28-4-1BB
predicted or actual binding affinity or score for HLA class I (HLA-A*02:01): reduced predicted or actual binding affinity or score
percentage of cells with intracellular expression of IL-2 [2]: greater percentage

B3: L34A: variant anti-CD19 CAR / junction region with L34A, numbering SEQ ID NO:5 (protein)
chain: B1 chain with H31R, L34A
modifications: CD28-4-1BB
predicted or actual binding affinity or score for HLA class I (HLA-A*02:01): reduced predicted or actual binding affinity or score
percentage of cells with intracellular expression of IL-2 [2]: greater percentage
percentage of cells with IFN-γ cytokine expression [2]: increased IFN-γ cytokine expression

Now from value to molecule:

A*03:01 In Vitro (HLA-A*03:01): 4.90
A*02:01 In Vitro Score (HLA-A*02:01): 8.10
A*11:01 In Vitro Score (HLA-A*11:01): 12.80
B*08:01 In Vitro Score (HLA-B*08:01): 45.10
Molecule: WVQRGRKKL [9-mer variant junction peptide, K28Q]

A*03:01 In Vitro (HLA-A*03:01): 2.70
A*02:01 In Vitro Score (HLA-A*02:01): 95.30
A*11:01 In Vitro Score (HLA-A*11:01): 56.50
B*08:01 In Vitro Score (HLA-B*08:01): 0.20
Molecule: IIFWVQRGA [9-mer variant junction peptide, K28Q/R31A]

A*03:01 In Vitro (HLA-A*03:01): 26.90
A*02:01 In Vitro Score (HLA-A*02:01): 2.40
A*11:01 In Vitro Score (HLA-A*11:01): 61.10
B*08:01 In Vitro Score (HLA-B*08:01): 58.30
Molecule: IFWVKRGLK [9-mer variant junction peptide, R31L]

A*03:01 In Vitro (HLA-A*03:01): 17.00
A*02:01 In Vitro Score (HLA-A*02:01): 11.70
A*11:01 In Vitro Score (HLA-A*11:01): 61.30
B*08:01 In Vitro Score (HLA-B*08:01): 0.20
Molecule: IFWVQRGAK [9-mer variant junction peptide, K28Q/R31A]

A*03:01 In Vitro (HLA-A*03:01): 1.30
A*02:01 In Vitro Score (HLA-A*02:01): 8.80
A*11:01 In Vitro Score (HLA-A*11:01): 13.80
B*08:01 In Vitro Score (HLA-B*08:01): 32.40
Molecule: WVARGRKKL [9-mer variant junction peptide, K28A]

A*03:01 In Vitro (HLA-A*03:01): 53.70
A*02:01 In Vitro Score (HLA-A*02:01): 1.00
A*11:01 In Vitro Score (HLA-A*11:01): 34.90
B*08:01 In Vitro Score (HLA-B*08:01): 0.00
Molecule: IFWVARGRK [9-mer variant junction peptide, K28A]
